# Literature values, collected in PubChem BioAssay AID1259409 (Chemical Carcinogenesis Research Information System (CCRIS), 2018).
# System: rodent chemically induced tumor inhibition, incidence and multiplicity
# Assay: CCRIS tumor inhibitor studies
# Details: Dose [Inhibitor]: 0
smiles,measurement,setting,value
C[C@H]1[C@H](C)CC[C@]2(C(=O)O)CC[C@]3(C)C(=CC[C@@H]4[C@@]5(C)CC[C@H](O)C(C)(C)[C@@H]5CC[C@]43C)[C@H]12,"tumour outcome (control, treated, inhibition, significance)","Carcinogen: 7,12-DIMETHYLBENZ[A]ANTHRACENE : 57-97-6, 2 UMOL IN 200 µL ACETONE 2/WK FOR 20 WK BEGINNING 1 WK POST CARCINOGEN DOSE (STUDY DURATION: 20 WK), Route [Inhibitor]: DERMAL, Species: MOUSE, Strain/Sex: CD-1/FEMALE, Target Tissue: Type of Lesion: SKIN: TUMOR, Dose [Carcinogen]: 200 NMOL IN 200 µL ACETONE ONCE, Promoter: 12-O-TETRADECANOYLPHORBOL-13-ACETATE, 16561-29-8","93%, 62%, 33%, not significant"
same,"tumour outcome (control, treated, inhibition, significance)","Carcinogen: 7,12-DIMETHYLBENZ[A]ANTHRACENE, 57-97-6, 0.1 UMOL IN 200 µL ACETONE 2/WK FOR 18 WK BEGINNING 1 WK POST CARCINOGEN DOSE (STUDY DURATION: 18 WK), Route [Inhibitor]: DERMAL, Species: MOUSE, Strain/Sex: CD-1/FEMALE, Target Tissue: Type of Lesion: SKIN: TUMOR, Dose [Carcinogen]: 200 NMOL IN 200 µL ACETONE ONCE, Promoter: 12-O-TETRADECANOYLPHORBOL-13-ACETATE, 16561-29-8","87%, 87%, 0%, not significant"
same,"tumour outcome (control, treated, inhibition, significance)","Carcinogen: 7,12-DIMETHYLBENZ[A]ANTHRACENE, 57-97-6, 0.3 UMOL IN 200 µL ACETONE 2/WK FOR 18 WK BEGINNING 1 WK POST CARCINOGEN DOSE (STUDY DURATION: 18 WK), Route [Inhibitor]: DERMAL, Species: MOUSE, Strain/Sex: CD-1/FEMALE, Target Tissue: Type of Lesion: SKIN: TUMOR, Dose [Carcinogen]: 200 NMOL IN 200 µL ACETONE ONCE, Promoter: 12-O-TETRADECANOYLPHORBOL-13-ACETATE, 16561-29-8","87%, 93%, -7%, not significant"
same,"tumour outcome (control, treated, inhibition, significance)","Carcinogen: 7,12-DIMETHYLBENZ[A]ANTHRACENE, 57-97-6, 1 UMOL IN 200 µL ACETONE 2/WK FOR 18 WK BEGINNING 1 WK POST CARCINOGEN DOSE (STUDY DURATION: 18 WK), Route [Inhibitor]: DERMAL, Species: MOUSE, Strain/Sex: CD-1/FEMALE, Target Tissue: Type of Lesion: SKIN: TUMOR, Dose [Carcinogen]: 200 NMOL IN 200 µL ACETONE ONCE, Promoter: 12-O-TETRADECANOYLPHORBOL-13-ACETATE, 16561-29-8","87%, 77%, 11%, not significant"
same,"tumour outcome (control, treated, inhibition, significance)","Carcinogen: 7,12-DIMETHYLBENZ[A]ANTHRACENE, 57-97-6, 1 UMOL IN 200 µL ACETONE 2/WK FOR 20 WK BEGINNING 1 WK POST CARCINOGEN DOSE (STUDY DURATION: 20 WK), Route [Inhibitor]: DERMAL, Species: (30,30)/(30,30), Strain/Sex: CD-1/FEMALE, Target Tissue: Type of Lesion: SKIN: TUMOR, Dose [Carcinogen]: 200 NMOL IN 200 µL ACETONE ONCE, Promoter: 12-O-TETRADECANOYLPHORBOL-13-ACETATE, 16561-29-8","93%, 80%, 14%, not significant"
same,"tumour outcome (control, treated, inhibition, significance)","Carcinogen: 7,12-DIMETHYLBENZ[A]ANTHRACENE, 57-97-6, 2 UMOL IN 200 µL ACETONE 2/WK FOR 18 WK BEGINNING 1 WK POST CARCINOGEN DOSE (STUDY DURATION: 18 WK), Route [Inhibitor]: DERMAL, Species: MOUSE, Strain/Sex: CD-1/FEMALE, Target Tissue: Type of Lesion: SKIN: TUMOR, Dose [Carcinogen]: 200 NMOL IN 200 µL ACETONE ONCE, Promoter: 12-O-TETRADECANOYLPHORBOL-13-ACETATE, 16561-29-8","87%, 60%, 31%, not significant"
Cc1ccc(O)c(O)c1,"tumour outcome (control, treated, inhibition, significance)","Carcinogen: N-NITROSOBIS(2-HYDROXYPROPYL)AMINE, 53609-64-6, 1.5% IN DIET FOR 30 WK BEGINNING POST CARCINOGEN TREATMENT (STUDY DURATION: 35 WK), Route [Inhibitor]: ORAL, Species: HAMSTER, Strain/Sex: SYRIAN/MALE, Target Tissue: Type of Lesion: PANCREAS: ADENOCARCINOMA, Dose [Carcinogen]: 500 MG/KG 1/WK FOR 5 WK, Promoter: NONE USED","8/17 (47%), 9/19 (47%), 0%, not significant"
CC(C)=CCC1=C(O)[C@@](O)(CC=C(C)C)C(=O)C(C(=O)CC(C)C)=C1O,"tumour outcome (control, treated, inhibition, significance)","Carcinogen: 7,12-DIMETHYLBENZ[A]ANTHRACENE : 57-97-6, 1 MG IN 100 µL ACETONE/DMSO (9:1) 2/WK FOR 17 WK APPLIED 30 MIN PRIOR TO EACH PROMOTER DOSE (STUDY DURATION: 18 WK), Route [Inhibitor]: DERMAL, Species: MOUSE, Strain/Sex: ICR/FEMALE, Target Tissue: Type of Lesion: SKIN: PAPILLOMA, Dose [Carcinogen]: 50 UG IN 100 µL ACETONE ONCE, Promoter: 12-O-TETRADECANOYLPHORBOL-13-ACETATE, 16561-29-8","100%, 7%, 93%, not calculated"
COc1ccc2cc3[n+](cc2c1OC)CCc1cc2c(cc1-3)OCO2,"tumour outcome (control, treated, inhibition, significance)","Carcinogen: METHYLCHOLANTHRENE, 56-49-5, 0.5 MG/KG BW BY GAVAGE 3/WK FOR 8 WK (STUDY DURATION: 180 D), Route [Inhibitor]: ORAL, Species: MOUSE, Strain/Sex: SWISS/MALE, Target Tissue: Type of Lesion: SKIN: SARCOMA, Dose [Carcinogen]: 200 UG/ANIMAL ONCE 5 D POST INHIBITOR TREATMENT","100%, 40%, 60%, not calculated"
same,"tumour outcome (control, treated, inhibition, significance)","Carcinogen: METHYLCHOLANTHRENE, 56-49-5, 2.5 MG/KG BW BY GAVAGE 3/WK FOR 8 WK (STUDY DURATION: 180 D), Route [Inhibitor]: ORAL, Species: MOUSE, Strain/Sex: SWISS/MALE, Target Tissue: Type of Lesion: SKIN: SARCOMA, Dose [Carcinogen]: 200 UG/ANIMAL ONCE 5 D POST INHIBITOR TREATMENT","100%, 47%, 53%, not calculated"
same,"tumour outcome (control, treated, inhibition, significance)","Carcinogen: METHYLCHOLANTHRENE, 56-49-5, 5 MG/KG BW BY GAVAGE 3/WK FOR 8 WK (STUDY DURATION: 180 D), Route [Inhibitor]: ORAL, Species: MOUSE, Strain/Sex: SWISS/MALE, Target Tissue: Type of Lesion: SKIN: SARCOMA, Dose [Carcinogen]: 200 UG/ANIMAL ONCE 5 D POST INHIBITOR TREATMENT","100%, 67%, 33%, not calculated"
same,"tumour outcome (control, treated, inhibition, significance)","Carcinogen: N,N-DIETHYLNITROSAMINE, 55-18-5, 10 MG/KG BW BY GAVAGE 5 D/WK FOR 141 D (STUDY DURATION: 30 WK), Route [Inhibitor]: ORAL, Species: RAT, Strain/Sex: WISTAR/FEMALE, Target Tissue: Type of Lesion: LIVER: TUMOR, Dose [Carcinogen]: 0.02% IN DISTILLED WATER BY GAVAGE 5 D/WK FOR 20 WK BEGINNING 1 D POST INHIBITOR FIRST DOSE","100%, 100%, 0%, not significant"
same,"tumour outcome (control, treated, inhibition, significance)","Carcinogen: N,N-DIETHYLNITROSAMINE, 55-18-5, 25 MG/KG BW BY GAVAGE 5 D/WK FOR 141 D (STUDY DURATION: 30 WK), Route [Inhibitor]: ORAL, Species: RAT, Strain/Sex: WISTAR/FEMALE, Target Tissue: Type of Lesion: LIVER: TUMOR, Dose [Carcinogen]: 0.02% IN DISTILLED WATER BY GAVAGE 5 D/WK FOR 20 WK BEGINNING 1 D POST INHIBITOR FIRST DOSE","100%, 50%, 50%, not significant"
same,"tumour outcome (control, treated, inhibition, significance)","Carcinogen: N,N-DIETHYLNITROSAMINE, 55-18-5, 50 MG/KG BW BY GAVAGE 5 D/WK FOR 141 D (STUDY DURATION: 30 WK), Route [Inhibitor]: ORAL, Species: RAT, Strain/Sex: WISTAR/FEMALE, Target Tissue: Type of Lesion: LIVER: TUMOR, Dose [Carcinogen]: 0.02% IN DISTILLED WATER BY GAVAGE 5 D/WK FOR 20 WK BEGINNING 1 D POST INHIBITOR FIRST DOSE","100%, 50%, 50%, not significant"
